Laboratory results: ChEMBL document CHEMBL4715874, “In Vivo Screening of Xanthones from Garcinia oligantha Identified Oliganthin H as a Novel Natural Inhibitor of Convulsions” (J Nat Prod, 2020)
The source made the active and inactive calls. No cut-off for these calls is given here.

Experiments:
Danio rerio [1] = species on record: Danio rerio; experiment: Anticonvulsant activity in AB zebra fish larvae assessed as reduction in PTZ-induced convulsant behavior by measuring swimming distance at 0.7 uM pretreated for 6 hrs followed by PTZ-stimulation and measured every 5 mins for 1 hr; assay type: functional, organism-based; settings: time 7.0 hrs
Danio rerio [2] = species on record: Danio rerio; experiment: Anticonvulsant activity in AB zebra fish larvae assessed as reduction in PTZ-induced convulsant behavior by measuring lowest observed effect concentration pretreated for 6 hrs followed by PTZ-stimulation and measured every 5 mins for 1 hr; assay type: functional; settings: time 7 hrs
[3] = Toxicity in AB zebra fish larvae assessed as mortality at >= 6.2 uM after 6 hrs relative to control; parameters: species or system Danio rerio; settings: zebrafish
[4] = Ratio of MTC for toxicity in AB zebra fish larvae to lowest observed effect concentration for Anticonvulsant activity in AB zebra fish larvae assessed as reduction in PTZ-induced convulsant behavior; parameters: species or system Danio rerio
[5] = Toxicity in AB zebra fish larvae assessed as maximum tolerated concentration after 6 hrs; parameters: species or system Danio rerio; settings: zebrafish, read-out: MTC
[6] = Neurotoxicity in AB zebra fish larvae at 1.5 uM after 6 hrs; assay type: toxicity, Danio rerio; settings: zebrafish
[7] = Neurotoxicity in AB zebra fish larvae assessed as decrease in total swimming distance at <= MTC after 6 hrs; assay type: toxicity, Danio rerio; settings: zebrafish

Structure (SMILES): CC(C)=CCC12CC(C(C)(C)O)OC1=C(O)C(=O)c1oc3c4c(cc(O)c3c(=O)c12)OC(C)(C)C=C4 (configuration not stated)
- Activity (Danio rerio [1]): Active
- Activity (Danio rerio [2]): 0.7 µM
- mortality at 6 h [3]: 100%
- Ratio [4]: 1
- MNTC at 6 h [5]: 700 nM
- Activity [6]: Toxic
- Activity [7]: Non-Toxic
